Test results published in publication PMC8550792, “Evolution of kinase polypharmacology across HSP90 drug discovery” (Cell Chemical Biology, 2021).

Legend:
Test in all cases: biochemical
Format in all cases: biochemical
382 unique human kinases [1] = target: T1, 382 unique human kinases (Homo sapiens, UniProt O00506); conditions: STK25/YSK1, compound at 10 uM, duplicate values; for remaining activity at 10 µM: read-out: % Enzyme Activity (relative to DMSO controls)
T1 construct: purchased Reaction Biology (HotSpot contract assay)

382 unique human kinases [2] = target: T2, 382 unique human kinases (Homo sapiens, UniProt P08581, D1228N); conditions: c-MET (D1228N), compound at 10 uM, duplicate values; for remaining activity at 10 µM: read-out: % Enzyme Activity (relative to DMSO controls)
T2 construct: purchased Reaction Biology (HotSpot contract assay)

382 unique human kinases [3] = target: T3, 382 unique human kinases (Homo sapiens, UniProt P08581, Y1235D); conditions: c-MET (Y1235D), 10 uM; for remaining activity at 10 µM: read-out: % Enzyme Activity (relative to DMSO controls)
T3 construct: purchased Reaction Biology (HotSpot contract assay)

382 unique human kinases [4] = target: T4, 382 unique human kinases (Homo sapiens, UniProt P14616); conditions: kinase IRR/INSRR, compound 10 uM; for remaining activity at 10 µM: read-out: % Enzyme Activity (relative to DMSO controls)
T4 construct: purchased Reaction Biology (HotSpot contract assay)

382 unique human kinases [5] = target: T5, 382 unique human kinases (Homo sapiens, UniProt P15735); conditions: PHKg2, compound at 10 uM, duplicate values; for remaining activity at 10 µM: read-out: % Enzyme Activity (relative to DMSO controls)
T5 construct: purchased Reaction Biology (HotSpot contract assay)
T5 sequence (P15735 1-406): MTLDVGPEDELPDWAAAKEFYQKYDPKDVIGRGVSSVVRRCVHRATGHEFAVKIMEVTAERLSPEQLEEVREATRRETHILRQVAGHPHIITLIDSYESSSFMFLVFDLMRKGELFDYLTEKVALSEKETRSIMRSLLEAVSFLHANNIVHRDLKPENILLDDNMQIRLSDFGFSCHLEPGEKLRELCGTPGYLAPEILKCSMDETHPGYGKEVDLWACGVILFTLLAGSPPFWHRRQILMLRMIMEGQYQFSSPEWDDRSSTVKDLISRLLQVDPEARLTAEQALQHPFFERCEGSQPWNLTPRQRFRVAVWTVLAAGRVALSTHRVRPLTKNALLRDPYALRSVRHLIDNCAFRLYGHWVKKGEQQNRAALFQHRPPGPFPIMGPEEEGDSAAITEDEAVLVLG

382 unique human kinases [6] = target: T6, 382 unique human kinases (Homo sapiens, UniProt Q13882); conditions: BRK, 10 uM; for remaining activity at 10 µM: read-out: % Enzyme Activity (relative to DMSO controls)
T6 construct: purchased Reaction Biology (HotSpot contract assay)

382 unique human kinases [7] = target: T7, 382 unique human kinases (Homo sapiens, UniProt Q9NWZ3); conditions: kinase IRAK4, compound 10 uM; for remaining activity at 10 µM: read-out: % Enzyme Activity (relative to DMSO controls)
T7 construct: purchased Reaction Biology (HotSpot contract assay)
T7 sequence (Q9NWZ3 1-460): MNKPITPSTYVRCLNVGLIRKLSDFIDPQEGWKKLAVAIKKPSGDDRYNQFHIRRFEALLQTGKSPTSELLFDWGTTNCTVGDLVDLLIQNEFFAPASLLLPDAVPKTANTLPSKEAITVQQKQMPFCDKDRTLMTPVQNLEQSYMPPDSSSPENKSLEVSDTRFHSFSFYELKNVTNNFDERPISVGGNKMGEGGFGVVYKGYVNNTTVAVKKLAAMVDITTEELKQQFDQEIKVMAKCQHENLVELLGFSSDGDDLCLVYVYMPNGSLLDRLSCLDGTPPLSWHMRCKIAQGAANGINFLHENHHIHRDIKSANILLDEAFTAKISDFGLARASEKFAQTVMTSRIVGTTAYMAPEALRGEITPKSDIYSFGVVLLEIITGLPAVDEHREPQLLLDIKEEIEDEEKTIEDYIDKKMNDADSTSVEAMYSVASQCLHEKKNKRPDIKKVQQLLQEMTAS

382 unique human kinases [8] = target: T8, 382 unique human kinases (Homo sapiens, UniProt Q08345); conditions: DDR1, [ATP] 100 µM
T8 construct: purchased Reaction Biology (HotSpot contract assay)

382 unique human kinases [9] = target: T9, 382 unique human kinases (Homo sapiens, UniProt Q8IY84); conditions: NIM1, 10 uM; for remaining activity at 10 µM: read-out: % Enzyme Activity (relative to DMSO controls)
T9 construct: purchased Reaction Biology (HotSpot contract assay)

382 unique human kinases [10] = target: T10, 382 unique human kinases (Homo sapiens, UniProt Q96KB5); conditions: PBK/TOPK, 10 uM; for remaining activity at 10 µM: read-out: % Enzyme Activity (relative to DMSO controls)
T10 construct: purchased Reaction Biology (HotSpot contract assay)
T10 sequence (Q96KB5 1-322): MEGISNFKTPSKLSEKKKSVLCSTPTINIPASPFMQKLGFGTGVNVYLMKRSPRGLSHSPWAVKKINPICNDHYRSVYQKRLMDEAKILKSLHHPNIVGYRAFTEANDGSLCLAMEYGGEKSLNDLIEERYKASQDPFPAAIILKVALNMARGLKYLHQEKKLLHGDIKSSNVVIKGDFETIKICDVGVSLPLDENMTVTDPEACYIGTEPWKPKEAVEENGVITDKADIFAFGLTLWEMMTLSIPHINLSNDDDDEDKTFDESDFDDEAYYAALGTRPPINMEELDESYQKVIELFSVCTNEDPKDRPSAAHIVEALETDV

382 unique human kinases [11] = target: T11, 382 unique human kinases (Homo sapiens, UniProt Q9UM73, C1156Y); conditions: ALK (C1156Y), [ATP] 5 µM, compound 10 uM; for remaining activity at 10 µM: read-out: % Enzyme Activity (relative to DMSO controls)
T11 construct: purchased Reaction Biology (HotSpot contract assay)

[12] = compound 10 uM, read-out: % Enzyme Activity (relative to DMSO controls)

T6 sequence (Q13882 whole entry): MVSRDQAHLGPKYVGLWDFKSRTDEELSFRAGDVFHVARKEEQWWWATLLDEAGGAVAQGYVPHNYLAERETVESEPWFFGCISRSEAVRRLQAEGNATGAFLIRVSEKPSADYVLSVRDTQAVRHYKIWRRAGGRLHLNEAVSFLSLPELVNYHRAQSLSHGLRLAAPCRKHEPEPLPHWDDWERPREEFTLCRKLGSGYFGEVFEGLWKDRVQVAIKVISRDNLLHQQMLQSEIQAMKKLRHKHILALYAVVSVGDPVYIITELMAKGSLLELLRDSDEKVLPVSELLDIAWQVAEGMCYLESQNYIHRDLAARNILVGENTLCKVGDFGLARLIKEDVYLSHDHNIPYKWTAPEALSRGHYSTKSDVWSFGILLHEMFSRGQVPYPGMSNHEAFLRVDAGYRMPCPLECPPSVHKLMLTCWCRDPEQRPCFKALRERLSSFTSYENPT
T4 sequence (P14616 27-1297): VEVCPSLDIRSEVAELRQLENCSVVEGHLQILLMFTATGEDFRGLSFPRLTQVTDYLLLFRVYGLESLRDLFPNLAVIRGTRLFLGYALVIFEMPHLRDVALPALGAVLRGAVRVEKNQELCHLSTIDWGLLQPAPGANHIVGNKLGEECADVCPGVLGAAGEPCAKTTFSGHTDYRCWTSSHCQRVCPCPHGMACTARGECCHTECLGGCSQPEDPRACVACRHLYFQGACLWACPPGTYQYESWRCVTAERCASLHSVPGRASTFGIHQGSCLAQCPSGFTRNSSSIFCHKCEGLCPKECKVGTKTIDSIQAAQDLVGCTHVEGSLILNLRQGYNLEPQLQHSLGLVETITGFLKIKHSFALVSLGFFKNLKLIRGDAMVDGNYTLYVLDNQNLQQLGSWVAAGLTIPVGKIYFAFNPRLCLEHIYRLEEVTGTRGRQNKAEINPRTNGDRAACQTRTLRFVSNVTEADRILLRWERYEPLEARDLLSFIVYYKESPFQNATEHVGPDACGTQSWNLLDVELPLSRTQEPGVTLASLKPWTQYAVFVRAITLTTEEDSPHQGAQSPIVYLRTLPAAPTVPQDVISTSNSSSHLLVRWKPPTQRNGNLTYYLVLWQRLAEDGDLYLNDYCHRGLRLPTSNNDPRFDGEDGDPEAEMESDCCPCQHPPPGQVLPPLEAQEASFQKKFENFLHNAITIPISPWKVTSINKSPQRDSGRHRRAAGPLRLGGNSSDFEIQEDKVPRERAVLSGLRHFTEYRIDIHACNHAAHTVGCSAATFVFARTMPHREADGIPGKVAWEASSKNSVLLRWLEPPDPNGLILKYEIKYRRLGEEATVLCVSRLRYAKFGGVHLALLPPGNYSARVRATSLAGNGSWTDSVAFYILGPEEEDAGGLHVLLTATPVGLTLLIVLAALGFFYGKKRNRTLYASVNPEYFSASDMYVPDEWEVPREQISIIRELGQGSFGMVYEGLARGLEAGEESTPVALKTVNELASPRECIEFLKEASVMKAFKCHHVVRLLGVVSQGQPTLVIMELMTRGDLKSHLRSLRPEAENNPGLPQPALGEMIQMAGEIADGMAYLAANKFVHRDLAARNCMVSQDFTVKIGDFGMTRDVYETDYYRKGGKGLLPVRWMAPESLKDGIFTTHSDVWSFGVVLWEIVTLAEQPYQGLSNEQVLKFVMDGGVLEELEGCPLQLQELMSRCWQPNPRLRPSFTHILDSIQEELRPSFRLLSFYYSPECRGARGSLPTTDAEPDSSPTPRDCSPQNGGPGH
T1 sequence (O00506 whole entry): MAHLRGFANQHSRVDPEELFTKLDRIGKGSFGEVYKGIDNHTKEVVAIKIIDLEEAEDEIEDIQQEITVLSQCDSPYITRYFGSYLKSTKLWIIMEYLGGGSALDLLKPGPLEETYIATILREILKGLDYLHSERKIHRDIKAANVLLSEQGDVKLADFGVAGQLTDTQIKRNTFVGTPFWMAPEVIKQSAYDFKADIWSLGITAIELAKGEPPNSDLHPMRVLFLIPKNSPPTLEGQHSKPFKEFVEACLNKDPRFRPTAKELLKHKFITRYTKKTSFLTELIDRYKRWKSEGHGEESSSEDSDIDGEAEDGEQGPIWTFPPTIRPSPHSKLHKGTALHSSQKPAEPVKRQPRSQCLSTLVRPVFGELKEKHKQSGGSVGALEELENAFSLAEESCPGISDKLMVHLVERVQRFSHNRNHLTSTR
T11 sequence (Q9UM73 19-1620 C1156Y): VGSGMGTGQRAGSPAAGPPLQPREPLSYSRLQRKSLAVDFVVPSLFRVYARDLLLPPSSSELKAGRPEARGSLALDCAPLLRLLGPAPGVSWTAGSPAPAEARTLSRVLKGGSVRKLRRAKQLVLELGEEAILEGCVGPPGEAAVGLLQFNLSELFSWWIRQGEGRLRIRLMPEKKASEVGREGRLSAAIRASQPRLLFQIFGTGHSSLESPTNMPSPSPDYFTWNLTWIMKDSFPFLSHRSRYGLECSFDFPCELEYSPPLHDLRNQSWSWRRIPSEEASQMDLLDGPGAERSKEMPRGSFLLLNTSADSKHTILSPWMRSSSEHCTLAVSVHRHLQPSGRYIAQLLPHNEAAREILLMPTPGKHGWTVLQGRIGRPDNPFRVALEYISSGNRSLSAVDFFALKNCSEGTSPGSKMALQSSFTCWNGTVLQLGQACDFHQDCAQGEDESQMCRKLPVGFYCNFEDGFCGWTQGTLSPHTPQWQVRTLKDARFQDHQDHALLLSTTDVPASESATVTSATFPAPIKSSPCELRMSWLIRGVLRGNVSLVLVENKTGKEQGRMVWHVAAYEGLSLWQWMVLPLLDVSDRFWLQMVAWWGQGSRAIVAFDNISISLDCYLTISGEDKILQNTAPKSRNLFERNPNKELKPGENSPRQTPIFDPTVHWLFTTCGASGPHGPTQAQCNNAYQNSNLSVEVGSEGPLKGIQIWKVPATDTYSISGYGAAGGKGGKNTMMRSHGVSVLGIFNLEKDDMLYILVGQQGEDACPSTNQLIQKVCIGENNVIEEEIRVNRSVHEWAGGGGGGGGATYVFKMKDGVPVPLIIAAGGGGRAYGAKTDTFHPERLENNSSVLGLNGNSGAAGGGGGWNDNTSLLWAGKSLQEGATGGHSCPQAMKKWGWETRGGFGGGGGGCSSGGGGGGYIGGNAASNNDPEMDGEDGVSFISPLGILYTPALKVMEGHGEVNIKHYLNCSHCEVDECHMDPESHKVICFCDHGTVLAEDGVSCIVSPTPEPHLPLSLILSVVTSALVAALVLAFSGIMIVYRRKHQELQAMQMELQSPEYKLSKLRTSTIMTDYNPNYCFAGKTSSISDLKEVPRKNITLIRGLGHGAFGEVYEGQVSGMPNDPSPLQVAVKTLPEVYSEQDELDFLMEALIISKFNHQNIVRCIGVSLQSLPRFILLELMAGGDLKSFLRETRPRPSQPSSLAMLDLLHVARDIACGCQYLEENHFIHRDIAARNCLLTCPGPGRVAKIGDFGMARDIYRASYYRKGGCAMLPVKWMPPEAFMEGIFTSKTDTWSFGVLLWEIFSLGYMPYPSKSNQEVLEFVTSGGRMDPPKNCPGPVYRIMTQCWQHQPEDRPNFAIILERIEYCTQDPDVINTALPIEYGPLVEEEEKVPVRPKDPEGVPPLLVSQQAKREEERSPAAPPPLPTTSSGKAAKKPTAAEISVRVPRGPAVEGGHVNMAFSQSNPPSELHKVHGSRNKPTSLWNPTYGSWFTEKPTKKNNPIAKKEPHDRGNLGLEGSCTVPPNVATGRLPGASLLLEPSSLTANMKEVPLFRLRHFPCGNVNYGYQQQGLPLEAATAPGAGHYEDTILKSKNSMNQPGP
T8 sequence (Q08345 19-913): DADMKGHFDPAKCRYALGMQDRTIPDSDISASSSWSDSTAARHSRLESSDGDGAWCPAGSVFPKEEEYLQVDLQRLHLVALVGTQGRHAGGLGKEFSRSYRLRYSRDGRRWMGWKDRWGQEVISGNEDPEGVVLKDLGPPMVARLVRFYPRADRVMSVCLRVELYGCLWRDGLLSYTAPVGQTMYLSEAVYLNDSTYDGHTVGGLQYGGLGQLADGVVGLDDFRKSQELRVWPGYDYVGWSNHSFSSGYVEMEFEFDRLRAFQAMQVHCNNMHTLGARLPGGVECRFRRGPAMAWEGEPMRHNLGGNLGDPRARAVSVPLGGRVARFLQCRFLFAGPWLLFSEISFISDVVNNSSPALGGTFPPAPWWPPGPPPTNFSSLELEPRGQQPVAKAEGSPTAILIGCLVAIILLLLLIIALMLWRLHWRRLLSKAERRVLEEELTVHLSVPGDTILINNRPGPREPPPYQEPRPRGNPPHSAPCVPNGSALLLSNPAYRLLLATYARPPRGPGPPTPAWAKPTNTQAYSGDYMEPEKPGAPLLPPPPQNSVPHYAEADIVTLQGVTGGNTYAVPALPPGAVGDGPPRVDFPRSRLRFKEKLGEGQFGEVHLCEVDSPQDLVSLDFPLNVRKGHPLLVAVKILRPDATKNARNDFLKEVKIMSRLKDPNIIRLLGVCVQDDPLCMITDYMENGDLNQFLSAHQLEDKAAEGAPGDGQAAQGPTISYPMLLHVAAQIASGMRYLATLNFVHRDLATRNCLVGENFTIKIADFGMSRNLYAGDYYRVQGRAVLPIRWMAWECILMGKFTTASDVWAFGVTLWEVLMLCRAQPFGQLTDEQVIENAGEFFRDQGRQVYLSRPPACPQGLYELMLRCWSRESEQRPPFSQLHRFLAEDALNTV
T9 sequence (Q8IY84 whole entry): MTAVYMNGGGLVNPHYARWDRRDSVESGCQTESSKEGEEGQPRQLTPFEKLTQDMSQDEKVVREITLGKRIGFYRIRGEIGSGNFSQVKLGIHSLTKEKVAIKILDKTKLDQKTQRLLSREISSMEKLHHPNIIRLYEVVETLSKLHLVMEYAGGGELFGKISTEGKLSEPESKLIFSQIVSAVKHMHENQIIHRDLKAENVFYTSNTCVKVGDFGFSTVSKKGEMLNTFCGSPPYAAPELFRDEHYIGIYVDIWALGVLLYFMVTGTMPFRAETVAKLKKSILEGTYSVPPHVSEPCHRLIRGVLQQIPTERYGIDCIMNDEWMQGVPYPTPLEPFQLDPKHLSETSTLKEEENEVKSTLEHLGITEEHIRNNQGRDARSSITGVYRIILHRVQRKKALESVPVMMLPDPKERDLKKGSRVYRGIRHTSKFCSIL

Row | SMILES | remaining activity at 10 µM (382 unique human kinases [1]) | remaining activity at 10 µM (382 unique human kinases [2]) | remaining activity at 10 µM (382 unique human kinases [3]) | remaining activity at 10 µM (382 unique human kinases [4]) | remaining activity at 10 µM (382 unique human kinases [5]) | remaining activity at 10 µM (382 unique human kinases [6]) | remaining activity at 10 µM (382 unique human kinases [7]) | remaining activity at 10 µM (382 unique human kinases [8]; [12]) | remaining activity at 10 µM (382 unique human kinases [9]) | remaining activity at 10 µM (382 unique human kinases [10]) | remaining activity at 10 µM (382 unique human kinases [11]) | further results
1 | CC(C)c1cc(-c2n[nH]c(=O)n2-c2ccc3c(ccn3C)c2)c(O)cc1O [Ganetespib (STA9090)] | 107% | 108% | 102% | 85.7% | 105% | 67.4% | 81.5% | – | – | – | – | –
2 | CC(C)c1cc(-c2n[nH]c(=O)n2-c2ccc3c(ccn3C)c2)c(O)cc1O [Ganetespib] | – | – | – | – | – | – | – | 4.12% | 90.5% | 93.8% | 20% | remaining activity at 1 µM (382 unique human kinases [8]; compound 1 uM, read-out: % Enzyme Activity (relative to DMSO controls)): 8.59%
3 | CCNC(=O)c1noc(-c2cc(C(C)C)c(O)cc2O)c1-c1ccc(CN2CCOCC2)cc1 [Luminespib (AUY-922)] | 110% | 107% | 73.3% | 102% | 107% | 84.8% | 118% | – | – | – | – | % Enzyme Activity (relative to DMSO controls) (382 unique human kinases [1]): 107.24%; % Enzyme Activity (relative to DMSO controls) (382 unique human kinases [2]): 105.32%; % Enzyme Activity (relative to DMSO controls) (382 unique human kinases [3]): 71.05%; % Enzyme Activity (relative to DMSO controls) (382 unique human kinases [4]): 101.61%; % Enzyme Activity (relative to DMSO controls) (382 unique human kinases [5]): 106.26%; % Enzyme Activity (relative to DMSO controls) (382 unique human kinases [6]): 83.67%; % Enzyme Activity (relative to DMSO controls) (382 unique human kinases [7]): 106.93%
4 | CCNC(=O)c1noc(-c2cc(C(C)C)c(O)cc2O)c1-c1ccc(CN2CCOCC2)cc1 [Luminespib] | – | – | – | – | – | – | – | 85.9% | 99.8% | 98.3% | 93.3% | % Enzyme Activity (relative to DMSO controls) (382 unique human kinases [8]; compound 10 uM): 84.86%; % Enzyme Activity (relative to DMSO controls) (382 unique human kinases [9]): 99.73%; % Enzyme Activity (relative to DMSO controls) (382 unique human kinases [10]): 96.61%; % Enzyme Activity (relative to DMSO controls) (382 unique human kinases [11]): 91.42%
